GI50 data for 22 molecules are collected here from patent US9580390B2, “Indazole compounds as kinase inhibitors and method of treating cancer with same” (University Health Network, priority 2011, dated 2017).

Assay [1] concerns ovarian cancer cells (PA-1). The assay is described as follows: Cancer cell line growth inhibition (SRB assay). It is filed as cell-based. Particulars: PA-1 ovarian cancer cells, SRB assay; read-out: Cancer Cell Line GI50 Range PA-1. A general note: The SRB assay estimates cell density from bound dye.
Assay [2] concerns colon cancer cells (HCT116). The assay is described as follows: Cancer cell line growth inhibition (SRB assay). It is filed as cell-based. The settings on record: Homo sapiens, HCT-116; HCT116 colon cancer cells, SRB assay; read-out: Cancer Cell Line GI50 Range HCT116.

Usually GI50 stands for the concentration that inhibits growth by half. Regarding `CCc1cccc(CC)c1NC(=O)Nc1ccc2[nH]nc(-c3ccc(N4CCOCC4)cc3)c2c1` [Example A86, 1-(2,6-diethylphenyl)-3-(3-(4-morpholinophenyl)-1H-indazol-5-yl)urea], the GI50 in assay [1] was 100 to 500 nM; in assay [2] it was < 100 nM.

For the molecule `COc1cc(-c2n[nH]c3ccc(C(=O)NC(c4ccccn4)C4CC4)cc23)ccc1OC1CCN(C=O)CC1` (stereo not drawn) [Example A206, N-(cyclopropyl(pyridin-2-yl)methyl)-3-(4-((1-formylpiperidin-4-yl)oxy)-3-methoxyphenyl)-1H-indazole-5-carboxamide], the GI50 in assay [1] and in assay [2] was 100 to 500 nM each time. Turning to `O=C(Nc1ccc2[nH]nc(-c3ccc(N4CCOCC4)cc3)c2c1)C(c1cccs1)N1CCCC1` (stereo not drawn) [Example A82, N-(3-(4-morpholinophenyl)-1H-indazol-5-yl)-2-(pyrrolidin-1-yl)-2-(thiophen-2-yl)acetamide], the GI50 in assay [1] and in assay [2] was < 100 nM each time. As for `CN1CCC(Oc2ccc(-c3n[nH]c4ccc(NC(=O)C5OCCc6ccccc65)cc34)cc2)CC1` (stereo not drawn) [Example A146, N-(3-(4-(1-Methylpiperidin-4-yloxy)phenyl)-1H-indazol-5-yl)isochroman-1-carboxamide], the GI50 in assay [1] is 100 to 500 nM; in assay [2], > 500 nM. The corresponding values for `CC[C@@H](NC(=O)c1ccc2[nH]nc(-c3ccc(OC4CCN(C5COC5)CC4)cc3)c2c1)c1ccccc1Cl` [Example A192, (R)-N-(1-(2-chlorophenyl)propyl)-3-(4-((1-(oxetan-3-yl)piperidin-4-yl)oxy)phenyl)-1H-indazole-5-carboxamide] are 100 to 500 nM and 100 to 500 nM.

For the molecule `CN1CCC(Oc2cccc(-c3n[nH]c4ccc(NC(=O)C(c5ccsc5)N5CCCC5)cc34)c2)CC1` (stereo not drawn) [Example A99, N-(3-(3-((1-methylpiperidin-4-yl)oxy)phenyl)-1H-indazol-5-yl)-2-(pyrrolidin-1-yl)-2-(thiophen-3-yl)acetamide], the GI50 in assay [1] and in assay [2] was > 500 nM in each case.

On to `CC(C)(O)C1CCN(c2ccc(-c3n[nH]c4ccc(C(=O)NC(c5ccccc5)C5CC5)cc34)cc2)CC1` (stereo not drawn) [Example A112, N-(cyclopropyl(phenyl)methyl)-3-(4-(4-(2-hydroxypropan-2-yl)piperidin-1-yl)phenyl)-1H-indazole-5-carboxamide], for which the concentration for 50% growth inhibition (GI50) in assay [1] and in assay [2] was 100 to 500 nM throughout. `CN1CCOC(c2ccc(-c3n[nH]c4ccc(C(=O)NC(c5ccccc5)C5CC5)cc34)cc2)C1` (stereo not drawn) [Example A139, N-(cyclopropyl(phenyl)methyl)-3-(4-(4-methylmorpholin-2-yl)phenyl)-1H-indazole-5-carboxamide]: the GI50 in assay [1] and in assay [2] was 100 to 500 nM each time. As to `COc1cc(-c2n[nH]c3ccc(C(=O)NC(c4ccccc4)C4CC4)cc23)ccc1OC1CCN(C)CC1` (stereo not drawn) [Example A19, N-(cyclopropyl(phenyl)methyl)-3-(3-methoxy-4-((1-methylpiperidin-4-yl)oxy)phenyl)-1H-indazole-5-carboxamide], in assay [2], the GI50 lay in the range of 100 to 500 nM. The same measure, in the same setting: the result for `C[C@H](NC(=O)c1ccc2[nH]nc(-c3ccc(OC4CCN(C)CC4)cc3)c2c1)C1CCCCC1` [Example A38, (S)-N-(1-cyclohexylethyl)-3-(4-((1-methylpiperidin-4-yl)oxy)phenyl)-1H-indazole-5-carboxamide] reads < 100 nM; that for `O=C(Nc1ccc2[nH]nc(-c3ccc(N4CCOCC4)cc3)c2c1)C(c1ccsc1)N1CCCCC1` (stereo not drawn) [Example A32, N-(3-(4-morpholinophenyl)-1H-indazol-5-yl)-2-(piperidin-1-yl)-2-(thiophen-3-yl)acetamide], < 100 nM; that for `O=C(Nc1ccc2[nH]nc(-c3ccc(OCCN4CCCC4)cc3)c2c1)C(c1ccsc1)N1CCCC1` (stereo not drawn) [Example A44, 2-(pyrrolidin-1-yl)-N-(3-(4-(2-(pyrrolidin-1-yl)ethoxy)phenyl)-1H-indazol-5-yl)-2-(thiophen-3-yl)acetamideamide], < 100 nM. Consider `CN1CCC(Oc2ccc(-c3n[nH]c4ccc(C(=O)NCC(C)(C)N5CCOCC5)cc34)cc2)CC1` [Example A74, N-(2-methyl-2-morpholinopropyl)-3-(4-((1-methylpiperidin-4-yl)oxy)phenyl)-1H-indazole-5-carboxamide], for which, in assay [2], the GI50 was > 500 nM. Turning to `COc1cc(-c2n[nH]c3ccc(C(=O)NC(c4ccccc4)C4CC4)cc23)ccc1OC1CCNCC1` (stereo not drawn) [Example A13, N-(cyclopropyl(phenyl)methyl)-3-(3-methoxy-4-(piperidin-4-yloxy)phenyl)-1H-indazole-5-carboxamide], in assay [2], the concentration for 50% growth inhibition (GI50) lay within 100 to 500 nM. `CN(c1ccc(-c2n[nH]c3ccc(NC(=O)C(c4ccsc4)N4CCCC4)cc23)cc1)C1CCOCC1` (stereo not drawn) [Example A78, N-(3-(4-(methyl(tetrahydro-2H-pyran-4-yl)amino)phenyl)-1H-indazol-5-yl)-2-(pyrrolidin-1-yl)-2-(thiophen-3-yl)acetamide]: the GI50 in assay [2] was < 100 nM. On to `CN1CCC(Oc2ccc(-c3n[nH]c4ccc(C(=O)NCC(c5ccsc5)N5CCOCC5)cc34)cc2)CC1` (stereo not drawn) [Example A75, 3-(4-((1-methylpiperidin-4-yl)oxy)phenyl)-N-(2-morpholino-2-(thiophen-3-yl)ethyl)-1H-indazole-5-carboxamide], for which the GI50 in assay [2] lay in the range of 100 to 500 nM. Still for that read-out and setting: with `C[C@H]1CCCN1[C@H](C(=O)Nc1ccc2[nH]nc(-c3ccc(N4CCOCC4)cc3)c2c1)c1ccsc1` [Example A47, (S)-2-((S)-2-methylpyrrolidin-1-yl)-N-(3-(4-morpholinophenyl)-1H-indazol-5-yl)-2-(thiophen-3-yl)acetamide] the figure was 100 to 500 nM; with `C[C@@H](NC(=O)c1ccc2[nH]nc(-c3ccc(N4CCOCC4)cc3)c2c1)C1CCCCC1` [Example A48, (R)-N-(1-cyclohexylethyl)-3-(4-morpholinophenyl)-1H-indazole-5-carboxamide], > 500 nM; with `COC(C(=O)Nc1ccc2[nH]nc(-c3ccc(OC4CCN(C)CC4)cc3)c2c1)c1ccsc1` (stereo not drawn) [Example A37, 2-methoxy-N-(3-(4-((1-methylpiperidin-4-yl)oxy)phenyl)-1H-indazol-5-yl)-2-(thiophen-3-yl)acetamide], < 100 nM. On the same count and under the same terms, the result for `CC(C)N1CCC(Oc2ccc(-c3n[nH]c4ccc(NC(=O)C(c5ccsc5)N5CCCC5)cc34)cc2)CC1` (stereo not drawn) [Example A30, N-(3-(4-((1-isopropylpiperidin-4-yl)oxy)phenyl)-1H-indazol-5-yl)-2-(pyrrolidin-1-yl)-2-(thiophen-3-yl)acetamide] reads < 100 nM.

`C[C@H]1CCCN1[C@H](C(=O)Nc1ccc2[nH]nc(-c3ccc(N4CCOCC4)cc3)c2c1)c1cccs1` [Example A79, (R)-2-((S)-2-methylpyrrolidin-1-yl)-N-(3-(4-morpholinophenyl)-1H-indazol-5-yl)-2-(thiophen-2-yl)acetamide]: the GI50 in assay [2] was < 100 nM. Turning to `CN1CCC(Oc2ccc(-c3n[nH]c4ccc(NC(=O)C(c5ccsc5)N5CCCC5)cc34)cc2N)CC1` (stereo not drawn) [Example A80, N-(3-(3-amino-4-((1-methylpiperidin-4-yl)oxy)phenyl)-1H-indazol-5-yl)-2-(pyrrolidin-1-yl)-2-(thiophen-3-yl)acetamide], the concentration for 50% growth inhibition (GI50) in assay [2] is < 100 nM.
